Laboratory results taken from patent publication US5248674A, “Percutaneous administration of 3'-azide'-deoxythymidine” (Nelson-Sumisho Co., Ltd., priority 1989, dated 1993).
Where two headings read alike, the source gives them in different places.

Legend:
[1] = format: in vitro ADME, rat (Wistar strain, male); settings: rat skin; for F, AZT permeation rate: n = 3; for promotion of AZT permeation through the skin (in words): in vitro, oleic acid vs water, Azone and S-318 vs 10% oleic acid
Method: A. The abdominal skin of a rat (Wistar strain, male, 200 g) was removed after shaving and placed between the chambers of a diffusion cell comprising two chambers having an effective permeation area of 0.95 cm^2 and a capacity of 2.3 ml for each chamber. The chamber of the corneum side received an AZT solution to be tested and the other chamber received water. The cell was warmed to 37° C. while the permeation of the drug towards the opposite chamber was measured. The AZT solution contained […] (5 mg/ml) AZT either in water or an aqueous solution of 10% oleic acid. […] The results are plotted In FIG. 1. The permeation rate during the stable permeation state (Fss) was determined as follows from the slope of the plots between 10 and 24 hours:
B. In a manner similar to that described in A, further agents capable of promoting permeation of AZT were searched. The promotion rate by each of the tested agents was expressed in relative terms when the rate of 10% oleic acid is tentatively determined as 1.
C. In the similar manner as in A and B, the permeation of AZT as a function of its concentration (3.7 mM-112 mM) was studied. 112 mM (about 3%) is a preferred concentration of AZT for practical purposes in producing a percutaneous AZT composition. The combination of a) 3% Azone+20% MP or b) 5% S-318+10% OA+20% PG+10% MP was used as a permeation promoting agent.

[2] = In vivo study - plasma AZT level by percutaneous (oleic acid pretreated skin) and oral administration of AZT; design: species or system rat (Wistar strain, male); settings: for concentration at 0.5 h / concentration at 1 h / concentration at 2 h / concentration at 4 h / concentration at 6 h / concentration at 8 h / concentration at 24 h: plasma
Method: Three male rates of Wistar strain weighing about 200 g was allotted to each group. The abdominal portion of the rat was shaven and pretreated with 10% oleic acid for 24 hours. Then a 1 ml aliquot of a solution containing 0.5% (18.7 mM) AZT and 10% oleic acid in water was applied over 4.9 cm^2 area of the skin by a glass cell secured on the body of the rat. AZT level in the plasma sampled at […], 2, 4, 6, 8 and 24 hours after the administration was determined by HPLC. A control group orally received 0.5 ml water containing 0.6 mg AZT.

[3] = In vivo study - percutaneous absorption of AZT without pretreatment with 10% oleic acid; design: species or system rat (Wistar strain, male); settings: no pretreatment, rat
Method: In a manner similar to that described in Example 2, the possibility of percutaneous absorption of AZT without pretreatment with 10% oleic acid was studied.
As absorption promoting agents, a) an aqueous solution containing 3% Azone and 20% MP, and b) an aqueous solution containing 5% S-318, 10% OA, 20% PG and 10% MP were prepared. AZT was dissolved at 3.7 mM concentration in each of said absorption agents and 1 ml of the resulting solution was applied to the skin of rats in a similar manner as in Example 2.

[4] = cited from earlier work
[5] = tested on: reverse transcriptases; settings: background statement; cited from earlier work
[6] = 3.7 mM (1 mg/ml) AZT, 3% Azone + 20% MP
[7] = 3.7 mM (1 mg/ml) AZT, 5% S-318 + 10% OA + 20% PG + 10% MP
[8] = 18.7 mM (5 mg/ml) AZT, 3% Azone + 20% MP
[9] = 18.7 mM (5 mg/ml) AZT, 5% S-318 + 10% OA + 20% PG + 10% MP
[10] = 56.2 mM (15 mg/ml) AZT, 3% Azone + 20% MP
[11] = 56.2 mM (15 mg/ml) AZT, 5% S-318 + 10% OA + 20% PG + 10% MP
[12] = 112 mM (30 mg/ml) AZT, 3% Azone + 20% MP
[13] = 112 mM (30 mg/ml) AZT, 5% S-318 + 10% OA + 20% PG + 10% MP
[14] = topical or ocular, percutaneous, 1 ml 0.5% AZT + 10% oleic acid, 4.9 cm^2, rat
[15] = oral, 0.6 mg AZT in 0.5 ml water, rat
[16] = according to Klecker et al. 1987

Q: Which relative promotion rate [1, 6] does the source give for `Cc1cn([C@H]2C[C@H](N=[N+]=[N-])[C@@H](CO)O2)c(=O)[nH]c1=O` [AZT, 3'-azide-3'-deoxythymidine] here?
A: Its relative promotion rate is 6.2.

Q: What about the “F, AZT permeation rate” value [1, 6] of the same molecule?
A: The value was 0.28 μmol/cm^2 /h.

Q: What about the relative promotion rate [1, 7] of the same molecule?
A: The relative promotion rate was 4.4.

Q: What about the “F, AZT permeation rate” value [1, 7] of the same molecule?
A: Its value is 0.20 μmol/cm^2 /h.

Q: And the relative promotion rate [1, 8]?
A: Its relative promotion rate is 16.4.

Q: And the “F, AZT permeation rate” value [1, 8]?
A: Its value is 0.74 μmol/cm^2 /h.

Q: And the relative promotion rate [1, 9]?
A: Its relative promotion rate is 14.0.

Q: And the “F, AZT permeation rate” value [1, 9]?
A: Its value is 0.63 μmol/cm^2 /h.

Q: What about the relative promotion rate [1, 10] of the same molecule?
A: The relative promotion rate was 49.3.

Q: What about the “F, AZT permeation rate” value [1, 10] of the same molecule?
A: Its value is 2.22 μmol/cm^2 /h.

Q: And the relative promotion rate [1, 11]?
A: Its relative promotion rate is 53.6.

Q: What about the “F, AZT permeation rate” value [1, 11] of the same molecule?
A: The value was 2.41 μmol/cm^2 /h.

Q: And the relative promotion rate [1, 12]?
A: The relative promotion rate was 71.6.

Q: And the “F, AZT permeation rate” value [1, 12]?
A: Its value is 3.22 μmol/cm^2 /h.

Q: And the relative promotion rate [1, 13]?
A: Its relative promotion rate is 108.

Q: And the “F, AZT permeation rate” value [1, 13]?
A: The value was 4.85 μmol/cm^2 /h.

Q: And the “permeation rate during the stable permeation state (Fss)” value ([1]; 37° C, 18.7 mM (5 mg/ml) AZT in 10% oleic acid, slope between 10 and 24 hours)?
A: The value was 0.045 μmol/cm^2 /h.

Q: And the “percutaneous absorption of AZT” value ([2]; applied to rat skin as a simple water solution (data not shown))?
A: The value was “not observed at all”.

Q: What about the “percutaneous absorption of AZT, detection in plasma” value ([2]; in the presence of oleic acid, rat) of the same molecule?
A: The value was “could be detected in the plasma over 24 hours”.

Q: What about the “drug level in the plasma after oral administration” value ([2]; oral, 0.6 mg AZT, rat) of the same molecule?
A: Its value is “undetectable at 6 hours after the administration”.

Q: What about the concentration at 0.5 h [2, 14] of the same molecule?
A: The concentration at 0.5 h was 200 nM.

Q: What about the concentration at 1 h [2, 14] of the same molecule?
A: The concentration at 1 h was 600 nM.

Q: What about the concentration at 2 h [2, 14] of the same molecule?
A: Its concentration at 2 h is 700 nM.

Q: What about the concentration at 4 h [2, 14] of the same molecule?
A: Its concentration at 4 h is 1500 nM.

Q: And the concentration at 6 h [2, 14]?
A: The concentration at 6 h was 1500 nM.

Q: What about the concentration at 8 h [2, 14] of the same molecule?
A: Its concentration at 8 h is 1500 nM.

Q: What about the concentration at 24 h [2, 14] of the same molecule?
A: Its concentration at 24 h is 4000 nM.

Q: And the concentration at 0.5 h [2, 15]?
A: The concentration at 0.5 h was 3100 nM.

Q: What about the concentration at 1 h [2, 15] of the same molecule?
A: Its concentration at 1 h is 2500 nM.

Q: And the concentration at 2 h [2, 15]?
A: The concentration at 2 h was 500 nM.

Q: And the concentration at 4 h [2, 15]?
A: The concentration at 4 h was 200 nM.

Q: And the concentration at 6 h [2, 15]?
A: The concentration at 6 h was under 100 nM.

Q: What about the concentration at 8 h [2, 15] of the same molecule?
A: The concentration at 8 h was under 100 nM.

Q: What about the concentration at 24 h [2, 15] of the same molecule?
A: The concentration at 24 h was under 100 nM.

Q: What about the “AZT level in the plasma” value ([3]; 3.7 mM AZT with a) 3% Azone + 20% MP or b) 5% S-318 + 10% OA + 20% PG + 10% MP) of the same molecule?
A: Its value is “a high AZT level in the plasma was achieved over a period of 10 hours”.

Q: And the “efficient penetration of AZT through the skin” value ([3]; 3.7 mM AZT, promoting agent a) 3% Azone + 20% MP)?
A: Its value is “especially remarkable”.

Q: What about the “clearance (Cltot)” value [4, 16] of the same molecule?
A: The value was 78 L/h.

Q: What about the “plasma AZT level required for AIDS treatment (Css)” value [4, 16] of the same molecule?
A: The value was 1000 nM.

Q: What about the “maintenance of an adequate AZT level in blood” value ([4]; conventional oral administration, 5 mg/kg every 4 hours, Klecker et al. 1987) of the same molecule?
A: The value was “impossible to maintain an adequate AZT level in blood”.

Q: And the “inhibition of reverse transcriptases” value [5]?
A: Its value is “effective inhibitor of reverse transcriptases”.

Q: Which “promotion of AZT permeation through the skin (in words)” value [1] does the source give for `CCCCCCCCCCCCN1CCCCCC1=O` [Azone, 1-dodecylazacycloheptane-2-one] here?
A: Its value is “greatly accelerated”.

Q: With `CCCCCCCC/C=C\CCCCCCCC(=O)O` [oleic acid] as the molecule, how does the “promotion of AZT permeation through the skin (in words)” value [1] read?
A: Its value is “promoted permeation of AZT through the skin”.
